This is an account of results in publication PMC12406685, “Thiazole substitution of a labile amide bond—a new option toward antiplasmodial pantothenamide-mimics” (Antimicrobial Agents and Chemotherapy, 2025).

Read-outs that look alike come from different tables or passages of the source.

The subject of assay [1] is intraerythrocytic P. falciparum. In words: In vitro parasite proliferation assay (SYBR Safe-based fluorescence). Format: cell-based, Plasmodium falciparum (3D7 strain). The following applies: for Antiplasmodial IC50 range, in words: 1 µM pantothenate; for IC50: Plasmodium falciparum, intraerythrocytic stage, 96 h. The procedure:
Culturing of intraerythrocytic stage P. falciparum parasites (3D7 strain) was carried out using a method adapted from Trager and Jensen ([97]) and Allen and Kirk ([98]). Parasites were maintained within human, male or female, erythrocytes (typically Group O+, Rh+, 4% hematocrit) in RPMI-1640 medium (Thermo Fisher Scientific, catalogue number 72400120) supplemented with 25 mM HEPES, 11 mM glucose, 200 μM hypoxanthine, 24 μg/mL gentamicin and 6 g/L Albumax II on a horizontally rotating shaking incubator (New Brunswick Innova 42/[…]) at 37°C under an atmosphere of 96% nitrogen, 3% carbon dioxide, and 1% oxygen. To evaluate the effect of each compound on the in vitro proliferation of P. falciparum parasites, a SYBR Safe-based fluorescence assay was used as previously described ([32]). All pantothenamide-mimics tested were initially dissolved to a concentration of 200 mM in DMSO. The final DMSO concentration in the assay never exceeded 0.1% (vol/vol). Assays were performed using the same medium used to culture the parasites. […] Assays were set up with synchronous ring-stage P. falciparum-infected erythrocytes in 96-well microtiter plates. Parasites were synchronized using 5% (wt/vol) sorbitol ([100]). […] P. falciparum-infected erythrocytes incubated in the presence of 0.5 μM chloroquine were used as a non-proliferation control, and those incubated in the absence of compounds and chloroquine served as a 100% parasite proliferation control. To minimize “edge effects” ([101], [102]), the outermost rows and columns of the microtiter plates were not used in the proliferation assays and were filled with 200 μL of medium. The plates were then incubated at 37°C for 96 h under a low-oxygen atmosphere. At the end of the incubation, plates were frozen at -80°C to lyse the cells. […] The fluorescence in the non-proliferation control wells was subtracted from the fluorescence readings in the other wells prior to further analysis. Parasite proliferation, calculated as a percentage of the fluorescence measured in the test wells relative to the fluorescence measured in the 100% parasite proliferation control wells, was then plotted against the logarithm of the compound concentration. […] IC50 values (determined from the sigmoidal curves) were averaged from three independent experiments.

Another assay has as its system PfPanK. Briefly: [14C]pantothenate phosphorylation assay in P. falciparum lysates (Somogyi reagent). Format: biochemical. The following applies: PfPanK versus HsPanK3 selectivity. On the procedure: Parasite lysates were prepared from saponin-isolated mature trophozoite-stage parasites as described by Saliba et al. ([14]), with modifications. Briefly, a culture with predominantly trophozoite stage parasites was thoroughly mixed with saponin (0.05% [wt/vol] final concentration) and centrifuged at 2,000 × g for 8 min at 4°C. The pelleted parasites were then transferred to a 1.5 mL tube and washed three times (16,000 × g, 1 min each time) with cold malaria saline (125 mM NaCl, 5 mM KCl, 25 mM HEPES, 20 mM glucose, 1 mM MgCl2, pH 7.1). Subsequently, washed saponin-isolated parasites were suspended in 1 mL of 10 mM Tris/Cl, pH 7.4, followed by trituration (10 times) through a SafetyGlide injection needle (25-gauge). The lysates were then centrifuged at 16,000 × g for 30 min at 4°C, and the supernatant was transferred to a new tube. The concentration of the lysates was then determined using the Bradford reagent.
Phosphorylation of [^14C]pantothenate was determined using a combination of zinc sulphate (ZnSO4) and barium hydroxide (Ba(OH)2) (Somogyi reagent) as previously described ([78]). In the 125 min time course, each reaction (650 µL) contained a final concentration of 50 mM Tris-Cl (pH 7.4), 5 mM ATP, 5 mM MgCl2, 2 µM (0.1 µCi/mL) [^14C]pantothenate, and 60 µg of total parasite lysate. The compounds were added at their 10× antiplasmodial IC50 values or at various concentrations to generate dose–response curves. Mixtures were incubated at 37°C throughout the experiment, and reactions were initiated by the addition of the lysates. A reaction with identical components to the test reactions but lacking the parasite lysate was prepared to serve as a no-phosphorylation negative control, and a reaction with DMSO vehicle control (0.2% vol/vol) served as a positive control. At pre-determined time points, 50 µL of the reaction mixture was transferred in triplicate to wells of a 96-well filter plate with 0.2 µm hydrophilic polyvinylidene fluoride (PVDF) membrane filter (Corning), which had been pre-loaded with 50 µL of 150 mM Ba(OH)2. The reaction mixtures were thoroughly mixed with the Ba(OH)2 in the wells to precipitate the enzyme and terminate the phosphorylation reaction. After all reactions had been terminated, phosphorylated compounds in each well were precipitated by the addition of 50 µL of 150 mM ZnSO4 to generate the Somogyi reagent. The plate was then washed twice with deionized H2O and once with 95% (vol/vol) ethanol using a vacuum manifold to remove the non-phosphorylated [^14C]pantothenate and was subsequently dried overnight at 37°C in a non-humidified incubator. The following day, 30 µL of Microscint-O (PerkinElmer) was added to each well, and the plate was sealed on the top and bottom with TopSeal-A Plus sealing film (PerkinElmer). A Packard Microplate Scintillation and Luminescence Counter was used to measure the radioactivity in each well immediately after the plate had been sealed. To determine the total radioactivity in each phosphorylation assay, 50 µL of each reaction mixture was added to the wells of an OptiPlate-96 microplate (PerkinElmer) in triplicate and was then thoroughly mixed with 150 µL of Microscint-40 (PerkinElmer), and the radioactivity was measured in the same manner. Phosphorylation of [^14C]pantothenate, calculated as a percentage of the radioactivity measured in the test wells relative to the total radioactivity in the phosphorylation assay, was then plotted against the reaction time. Each data set was analyzed by linear regression, from which the phosphorylation rate of each reaction was then determined and expressed as a percentage of the phosphorylation rate of the DMSO-positive control reaction.

[2] abbreviates: RPMI-1640 containing 1 µM pantothenate, mean ± SEM of three experiments, read-out: IC50 (µM) against Pf at 1 µM Pan.
The mark [3] stands for this setting: RPMI-1640 containing 100 µM pantothenate, read-out: IC50 (µM) against Pf at 100 µM Pan.

One may read the IC50 as the concentration needed to halve the response being measured. Regarding `CC(C)(CO)[C@@H](O)C(=O)NCc1csc(-c2ccccc2)n1` [Compound 2e], the “Antiplasmodial IC50 range, in words” value in assay [1] is “sub-micromolar range”. Moreover, the figures for the IC50 in assay [1] (setting [2]) and in assay [1] (setting [3]) were 0.51 ± 0.02 µM and > 6.25 µM, respectively. Further, the “Fold by which IC50 at inhibiting PfPanK-mediated pantothenate phosphorylation is lower than Km observed for HsPanK3” value in the assay on PfPanK is 120 fold.

Take `CC(C)(CO)[C@@H](O)C(=O)NCc1cnc(-c2ccccc2)s1` [Compound 3f]: the IC50 was 8 ± 0.7 µM in assay [1] (setting [2]) and > 50 µM in assay [1] (setting [3]).

For `CC(C)(CO)[C@@H](O)C(=O)NCc1nc(CCc2ccccc2)cs1` [Compound 1e], in assay [1], the “Antiplasmodial IC50 range, in words” value is given as “sub-micromolar range”. Moreover, the IC50 was 0.77 ± 0.09 µM in assay [1] (setting [2]) and > 12.5 µM in assay [1] (setting [3]).

As to `CC(C)(CO)[C@@H](O)C(=O)NCc1csc(Cc2ccccc2)n1` [Compound 2c], the IC50 was 2.4 ± 0.2 µM in assay [1] (setting [2]) and > 25 µM in assay [1] (setting [3]).

As to `CCCCCc1csc(CNC(=O)[C@H](O)C(C)(C)CO)n1` [Compound 1c], the results for the IC50 in assay [1] (setting [2]) and in assay [1] (setting [3]) were 2.3 ± 0.2 µM and > 25 µM, respectively.

As to `CCCCc1csc(CNC(=O)[C@H](O)C(C)(C)CO)n1` [Compound 1a], the “Antiplasmodial IC50 range, in words” value in assay [1] was “sub-micromolar range”. Also, the IC50 is 0.77 ± 0.1 µM in assay [1] (setting [2]) and > 6.25 µM in assay [1] (setting [3]).
